# Values quoted from earlier work in patent US11179353B1, “Composition and method for prevention and treatment of radiation dermatitis” (Rythera Therapeutics, Inc., priority 2020, dated 2021).
# Columns and labels:
# irradiated breast tissue = settings: topical
# radiation skin damage = settings: retrospective analysis
Compound,improvement in the results of irradiated breast tissue (irradiated breast tissue),dermato-cytoprotective effects (radiation skin damage)
O=C1O[C@H]([C@@H](O)CO)C(O)=C1O [Vitamin C],without improvement,–
NCCCNCCSP(=O)(O)O [amifostine],–,significant dermato-cytoprotective effects
